Results published in publication PMC9314723, “The aqueous stability and interactions of organoruthenium compounds with serum proteins, cell culture medium, and human serum” (Metallomics: Integrated Biometal Science, 2022).

Experiments:
[1] = CZE stability study in H2O and 20 mM phosphate buffer (pH 7.4); type: physicochemical; conditions: 200 μM; for Stability in water (peak areas of cationic species constant): complex cations of 2 and 3, or initial aquation products of 1 and 3, CZE over 24 h
Description: Stability studies of complexes 1–3 were carried out in both H2O and 20 mM phosphate buffer (pH 7.4). Stock solutions for the complexes were prepared in methanol (2 mM). The samples were diluted just before the first measurement to a final complex concentration of 200 μM. Tris(acetylacetonato)cobalt(III) [Co(acac)3] was added as an internal standard to all samples at a final concentration of 100 μM. The stability was studied for 24 h by monitoring changes in the peak areas over time.
(§1) All measurements were performed in at least triplicate on a CE system G7100 (Agilent, Waldbronn, Germany) equipped with a long-life deuterium lamp (8 pin) with an radio-frequency identification (RFID) tag. A capillary (fused silica, 50 μm ID, Polymicro Technologies) with a total length of 50 cm and an effective length of 40 cm was installed for the separation with ultraviolet (UV) detection. The capillary zone electrophoresis (CZE)–UV data and peak areas presented were recorded at 200 nm, while the internal standard signal was recorded at 254 nm in the samples containing αMEM and human serum, as other neutral species were overlapping the signal at 200 nm. For HSA binding site studies, 210 nm was selected as the evaluation wavelength.
(§2) New capillaries were conditioned with HCl (0.1 M) and H2O followed by NaOH (1.0 M) and H2O for 10 min each followed by flushing with BGE [phosphate buffer (20 mM, pH 7.4)] for 20 min. The same procedure was carried out as daily conditioning. The capillary was flushed with BGE (3 min) before each run and was rinsed with HCl (0.1 M; 30 s), H2O (30 s), NaOH (1.0 M, 2 min), and H2O (2 min) after each separation. The sample tray and the capillary were kept at 25°C. Samples were injected hydrodynamically (50 mbar for 5 s) and the voltage applied was +20 kV for 5 min. The current reading was 23–24 μA.

HSA = target: T1, HSA (Homo sapiens, UniProt P02768); assay: CZE interaction study with HSA; type: binding
T1 construct: purchased Sigma-Aldrich A3782
T1 sequence (P02768 25-609): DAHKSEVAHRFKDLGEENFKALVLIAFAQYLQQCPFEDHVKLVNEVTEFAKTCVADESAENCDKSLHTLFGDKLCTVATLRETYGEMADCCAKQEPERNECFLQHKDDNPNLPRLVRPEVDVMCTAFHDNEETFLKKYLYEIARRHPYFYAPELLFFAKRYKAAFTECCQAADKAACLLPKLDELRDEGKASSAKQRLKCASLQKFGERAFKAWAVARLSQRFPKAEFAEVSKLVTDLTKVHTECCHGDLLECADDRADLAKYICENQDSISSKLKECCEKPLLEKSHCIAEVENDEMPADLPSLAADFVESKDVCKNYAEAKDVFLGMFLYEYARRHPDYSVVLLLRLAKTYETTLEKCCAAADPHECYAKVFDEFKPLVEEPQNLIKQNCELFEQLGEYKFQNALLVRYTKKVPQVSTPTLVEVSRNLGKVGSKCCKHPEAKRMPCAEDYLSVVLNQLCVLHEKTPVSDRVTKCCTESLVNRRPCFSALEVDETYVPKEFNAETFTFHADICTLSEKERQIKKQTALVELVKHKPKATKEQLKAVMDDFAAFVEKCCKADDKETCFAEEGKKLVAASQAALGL
Description: (§3) Stock solutions of HSA and Tf in BGE were prepared (400 μM). Studies were performed for 1 and 2 at complex (200 μM):protein ratios of 1:1, 10:1, and 20:1. The PCA complex 3 was investigated at complex (200 μM):protein ratios of 20:1 and 50:1 for HSA and at 10:1 and 20:1 for Tf. Samples were prepared just before the first measurement. BGE was used for dilution and [Co(acac)3] was added as the internal standard to all samples at a final concentration of 100 μM.
as §1, §2

Tf [2] = target: T2, Tf (Homo sapiens, UniProt P02787); assay: CZE interaction study with Tf; type: binding
T2 construct: purchased Sigma-Aldrich
T2 sequence (P02787 20-698): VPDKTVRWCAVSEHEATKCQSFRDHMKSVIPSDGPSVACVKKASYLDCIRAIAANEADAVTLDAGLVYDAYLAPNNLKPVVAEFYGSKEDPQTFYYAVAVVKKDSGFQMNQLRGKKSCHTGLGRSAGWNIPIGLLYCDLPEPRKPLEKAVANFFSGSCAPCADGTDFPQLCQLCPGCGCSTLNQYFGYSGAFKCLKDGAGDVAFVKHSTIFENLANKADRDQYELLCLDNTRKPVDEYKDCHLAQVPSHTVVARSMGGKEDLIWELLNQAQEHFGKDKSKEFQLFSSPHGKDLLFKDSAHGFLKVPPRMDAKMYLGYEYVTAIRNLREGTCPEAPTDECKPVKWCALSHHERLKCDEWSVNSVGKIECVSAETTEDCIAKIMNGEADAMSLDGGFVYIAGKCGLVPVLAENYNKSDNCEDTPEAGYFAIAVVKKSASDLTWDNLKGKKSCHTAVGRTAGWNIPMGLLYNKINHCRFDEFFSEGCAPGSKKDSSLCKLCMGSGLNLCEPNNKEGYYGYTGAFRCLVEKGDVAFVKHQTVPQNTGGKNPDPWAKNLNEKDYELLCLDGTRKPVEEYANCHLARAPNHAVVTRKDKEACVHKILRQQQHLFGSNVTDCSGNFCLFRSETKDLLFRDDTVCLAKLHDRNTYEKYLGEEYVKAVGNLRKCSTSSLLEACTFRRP
Description: as §3, §1, §2

HSA binding site II = target: T3, HSA binding site II (Homo sapiens, UniProt P02768); assay: Competitive displacement study, HSA binding site II (Ds marker), CZE; conditions: for % Ds bound: Ds:HSA (100 μM) 2:1, n = 3
T3 construct: purchased Sigma-Aldrich A1653
T3 sequence (P02768 25-609): as the sequence (P02768 25-609) above
Description: The affinity of complex 1 for binding sites I and II on HSA was investigated with Wf as the site marker for binding site I and Ds for site II by tracking the peak area for unbound Wf and Ds, respectively. Stock solutions of Wf, Ds, and HSA were prepared in H2O at concentrations of 800, 800, and 200 μM, respectively. Wf or Ds were incubated with HSA (100 μM) at a ratio of 2:1 for at least 1 h at room temperature before complex 1 was added at final concentrations of 200, 400, or 800 μM. The final concentration of methanol was 10% in all samples. Calibration curves for Wf or Ds in the range of 50–300 μM were determined before the start of each displacement study, to allow for accurate quantification of the amounts of Ds or Wf displaced by complex 1.
as §1
(§4) For the binding site studies with HSA, a modified version of a CE method was applied.[21] Before each run, the capillary was flushed with BGE (2 min), then +28 kV voltage was applied for 30 s followed by 1 min of flushing with BGE and the capillary was rinsed with HCl (0.1 M; 2 min), H2O (2 min), NaOH (1.0 M, 2 min), and H2O (2 min) after each separation. The sample tray and the capillary were kept at 25°C. Samples were injected hydrodynamically (30 mbar for 5 s) and the voltage applied was +28 kV for 5 min. The current reading was 34 μA.

HSA binding site I = target: T4, HSA binding site I (Homo sapiens, UniProt P02768); assay: Competitive displacement study, HSA binding site I (Wf marker), CZE; conditions: for % Wf bound: Wf:HSA (100 μM) 2:1, n = 3
T4 construct: purchased Sigma-Aldrich A1653
T4 sequence (P02768 25-609): as above
Description: The final concentration of methanol was 10% in all samples.
as §1, §4

Tf [3] = target: T2, Tf; assay: FT-ICR-MS adduct formation with Tf; type: binding; conditions: complex:Tf 5:1 in water
Description: The adduct formation between complex 1 and Tf was further studied using a Bruker Solarix XR 7 T FT–ICR–MS. A mixture of 1 and Tf in ratio 5:1 in H2O (18 MΩ, Millipore) was incubated for 24 h. A sample was collected after 0 and 24 h, and the samples were frozen until analysis. The samples were diluted 1:100 with 0.1% formic acid in H2O (18 MΩ, Millipore) prior to analysis, producing a final concentration of 2 μM for complex 1 and 0.4 μM for Tf. A separate standard of Tf at 0.4 μM was also prepared and analyzed.

Aqueous solubility = type: physicochemical
human cancer cells = conditions: cited from earlier work
[4] = set-up: method as in PMID 31357065; conditions: cited from earlier work
[5] = CZE interaction study with cell culture medium; type: in vitro ADME; conditions: complex 200 μM, medium diluted 1:10, complex:albumin 133:1
Description: The interactions of complexes 1–3 with cell culture medium (αMEM with 5% FBS) were investigated. The αMEM was diluted 1:10 with BGE and the complex concentrations were kept at 200 μM and [Co(acac)3] at 100 μM. The dilution corresponded to a complex:albumin ratio of 133:1.
as §1
(§5) New capillaries were conditioned with HCl (0.1 M) and H2O followed by NaOH (1.0 M) and H2O for 10 min each followed by flushing with BGE [phosphate buffer (20 mM, pH 7.4)] for 20 min. The same procedure was carried out as daily conditioning. […] The current reading was 23–24 μA.

[6] = CZE interaction study with human serum; type: in vitro ADME; conditions: complex 200 μM, serum diluted 1:100, complex:albumin about 50:1
Description: The interactions of complexes 1–3 with human serum were investigated after diluting the serum 1:100 with BGE and the complex concentrations were kept at 200 μM and for [Co(acac)3] at 100 μM. The dilution corresponded to a complex:protein ratio of about 50:1 with regard to albumin content.
as §1, §5

plectin = test system: plectin; set-up: method as in earlier work; conditions: cited from earlier work
HSA and Tf = test system: HSA and Tf; set-up: method as in PMID 15907879; conditions: cited from earlier work

For Cc1ccc(C(C)C)cc1.[Cl-].[O-]c1cccc2cccnc12.[Ru+2] [Complex 1, [Ru^II(cym)(8-HQ)Cl]], the “Speciation on dilution with water or BGE” value ([1]; migration relative to EOF marker [Co(acac)3]) was “underwent ligand exchange to form a cationic species”, the “Stability in water (peak areas of cationic species constant)” value (“Stability in water” for short) [1] was “at least 24 h” and the “Binding to HSA, complex peak” value (HSA; complex (200 μM):HSA 1:1) was “complex peak was not detectable in the first run”. The “Binding to HSA” value (HSA; complex (200 μM):HSA 10:1, over 2 h) was “majority of complex 1 was found attached to either protein”, the “Fraction of complex remaining unbound” value (HSA; complex (200 μM):HSA 20:1, after 2 h) was “about a quarter to a third” and the “Binding to Tf, complex peak” value (Tf [2]; complex (200 μM):Tf 1:1) was “complex peak was not detectable in the first run”. The “Binding to Tf” value (Tf [2]; complex (200 μM):Tf 10:1, over 2 h) was “majority of complex 1 was found attached to either protein”, the “Fraction of complex remaining unbound” value (Tf [2]; complex (200 μM):Tf 20:1, after 2 h) was “about a quarter to a third” and the “% Ds bound” value (HSA binding site II; 200 μM complex 1, 0 h) was 44 ± 6%. The “% Ds bound” value (HSA binding site II; 200 μM complex 1, 24 h) was 50 ± 7%, the “% Ds bound” value (HSA binding site II; 200 μM complex 1, 48 h) was 45 ± 7% and the “% Ds bound” value (HSA binding site II; 400 μM complex 1, 0 h) was 35 ± 7%. For the same compound, the “% Ds bound” value (HSA binding site II; 400 μM complex 1, 24 h) was 19 ± 11%, the “% Ds bound” value (HSA binding site II; 400 μM complex 1, 48 h) was 33 ± 7% and the “% Ds bound” value (HSA binding site II; 800 μM complex 1, 0 h) was “Fully displaced”. The “% Ds bound” value (HSA binding site II; 800 μM complex 1, 24 h) was “Fully displaced”, the “% Ds bound” value (HSA binding site II; 800 μM complex 1, 48 h) was “Fully displaced” and the “Binding to site II on HSA (displacement of Ds)” value (HSA binding site II; at higher molar ratios) was “binds to both sites I and II on HSA”. For the same compound, the “% Wf bound” value (HSA binding site I; 200 μM complex 1, 0 h) was 58 ± 4%, the “% Wf bound” value (HSA binding site I; 200 μM complex 1, 24 h) was 59 ± 4% and the “% Wf bound” value (HSA binding site I; 200 μM complex 1, 48 h) was 51 ± 4%. The “% Wf bound” value (HSA binding site I; 400 μM complex 1, 0 h) was 26 ± 9%, the “% Wf bound” value (HSA binding site I; 400 μM complex 1, 24 h) was 23 ± 5% and the “% Wf bound” value (HSA binding site I; 400 μM complex 1, 48 h) was 33 ± 8%. For the same compound, the “% Wf bound” value (HSA binding site I; 800 μM complex 1, 0 h) was “Fully displaced”, the “% Wf bound” value (HSA binding site I; 800 μM complex 1, 24 h) was “Fully displaced” and the “% Wf bound” value (HSA binding site I; 800 μM complex 1, 48 h) was “Fully displaced”. For the same compound, the “Binding to site I on HSA (displacement of Wf)” value (HSA binding site I; at higher molar ratios) was “binds to both sites I and II on HSA”, the “Adducts formed with Tf” value (Tf [3]; after 24 h) was “[Tf + 3 Ru(cym)(8-HQ)] was dominant” and the “Adducts formed with Tf” value (Tf [3]; immediately after mixing (0 h)) was “adducts with one, two, and three Ru(cym)(8-HQ) moieties attached to the protein”. For the same compound, the Aqueous solubility (Aqueous solubility) was “limited aqueous solubility”, the “IC50 values (antiproliferative properties)” value (human cancer cells) was “low micromolar range” and the “Halido/aqua ligand exchange in aqueous environment (1H NMR)” value [4] was “undergo halido/aqua ligand exchange quickly”.

With C1N2CN3CN1CP(C2)C3.Cc1ccc(C(C)C)cc1.O=S(=O)([O-])C(F)(F)F.[O-]c1cccc2cccnc12.[Ru+2] [Complex 2, [Ru^II(cym)(8-HQ)(PTA)](SO3CF3)] the “Stability in water” value [1] was “at least 24 h”, the “Interaction with HSA” value (HSA; complex (200 μM):HSA 1:1, 10:1, 20:1, over 1 d) was “does not interact with either protein” and the “Interaction with Tf” value (Tf [2]; complex (200 μM):Tf 1:1, 10:1, 20:1, over 1 d) was “does not interact with either protein”. The “Interaction with αMEM spiked with 5% FBS” value [5] was “no interactions were observed”, the “Interaction with human serum” value [6] was “no interactions were observed” and the “Halido/aqua ligand exchange in aqueous environment (1H NMR)” value [4] was “inert”.

In the case of Cc1ccc(C(C)C)cc1.Fc1ccc(NC(=S)c2ccccn2)cc1.[Cl-].[Cl-].[Ru+2] [Complex 3, [Ru^II(cym)(PCA)Cl]Cl], the “Stability in water” value [1] is reported as “at least 24 h”, the “Observation on incubation with HSA” value (HSA; complex (200 μM):HSA 20:1 and 50:1, data not analysable) is reported as “precipitation” and the “Decrease in Tf peak area” value (Tf [2]; complex:Tf 10:1) is reported as 62%. For the same compound, the “Decrease in Tf peak area” value (Tf [2]; complex:Tf 20:1) was 82%, the “Decrease in peak area of complex 3” value (Tf [2]; complex:Tf 20:1) was 37% and the “Interaction with αMEM spiked with 5% FBS” value [5] was “precipitation was observed”. For the same compound, the “Interaction with human serum” value [6] was “precipitation was observed”, the “IC50 values (antiproliferative properties)” value (human cancer cells) was “low micromolar range” and the Protein target (plectin) was “specifically target the scaffold protein and cytolinker plectin”.

For [Cl-].[Cl-].[Cl-].[Cl-].[Ru+3].c1ccc2[nH][nH+]cc2c1.c1ccc2[nH]ncc2c1.c1ccc2[nH]ncc2c1 [KP1019, Indazolium Trans-[Tetrachlorobis(1H-Indazole)Ruthenate(III)]], the “Relative rate of binding to serum proteins” value (HSA and Tf) is given as “bind quicker to Tf than HSA”.
